Legend:
Assay type in all cases: in vivo
[1] = test system: Spodoptera exigua (lesser army worm - larvae); experiment: Residual test on lesser army worm larvae (SP), Cotton leaf, mortality; settings: 48 h, residual, 2 days, read-out: SP grading of mortality
Protocol: (§1) The activity of the Product was determined using a variety of insect pests. The Product was used in the form of liquid preparations containing 500, 250 or 100 parts per million (ppm) by weight of the Product. The preparations were made by dissolving the Product in acetone and diluting the solutions with water containing 0.01% by weight of a wetting agent sold under the trade name "LISSAPOL" NX until the liquid preparations contained the required concentration of the Product. "Lissapol" is a Registered Trade Mark.
(§2) The test procedure adopted with regard to each pest was basically the same and comprised supporting a number of the pests on a medium which was usually a host plant or a foodstuff on which the pests feed, and treating either or both the pests and the medium with the preparations. The mortality of the pests was then assessed at periods usually varying from one to three days after the treatment.
(§3) The results of the tests are given in Table III for each of the Products, at the rate in parts per million given in the second column as a grading of mortality designated as A, B or C wherein A indicates 80-100% mortality or knockdown, B indicates 50-79% mortality or knockdown and C indicates less than 50% mortality or knockdown.
(lesser army worm - larvae)

Myzus persicae (aphids) = experiment: Contact test on aphids (MP), Chinese Cabbage leaf, mortality; settings: 72 h, contact, 3 days, read-out: MP grading of mortality
Protocol: as §1, §2, §3

[2] = test system: Tetranychus urticae (spider mites - adult); experiment: Contact test on spider mites - adult (TUa), French bean leaf, mortality; settings: 72 h, contact, 3 days, read-out: TUa grading of mortality
Protocol: as §1, §2, §3

[3] = test system: Musca domestica (houseflies - adults); experiment: Knockdown test on houseflies - adults (MD/KD), Cotton wool/sugar; settings: 500 ppm, 4 hours, read-out: MD/KD grading of knockdown
Protocol: as §1, §2
In the case of the species Musca domestica (housefly), additional tests to determine the knockdown effect of the compounds were performed. PG,163
as §3

[4] = test system: Blattella germanica (cockroach nymphs); experiment: Contact test on cockroach nymphs (BG/C), Plastic pot, mortality; settings: 48 h, contact, 2 days, read-out: BG/C grading of mortality
Protocol: as §1, §2, §3
BG/C Blattella germanica

[5] = test system: Tetranychus urticae (spider mites - ova); experiment: Contact test on spider mites - ova (TUe), French bean leaf, mortality; settings: 144 h, contact, 6 days, read-out: TUe grading of mortality
Protocol: as §1, §2, §3

[6] = test system: Musca domestica (houseflies - adults); experiment: Contact test on houseflies - adults (MD), Cotton wool/sugar, mortality; settings: 72 h, 500 ppm, contact, 3 days, read-out: MD grading of mortality
Protocol: as §1, §2, §3

[7] = test system: Nephotettix cincticeps (green leaf hopper - nymphs); experiment: Contact test on green leaf hopper nymphs (NC), Rice plant, mortality; settings: 48 h, 500 ppm, contact, 2 days, read-out: NC grading of mortality
Protocol: as §1, §2, §3
NC Nephotettix cincticeps

[8] = test system: Diabrotica balteata (rootworm larvae); experiment: Residual test on rootworm larvae (DB), Filter paper/maize seed, mortality; settings: 48 h, residual, 2 days, read-out: DB grading of mortality
Protocol: as §1, §2, §3

[9] = test system: Heliothis virescens (tobacco budworm - larvae); experiment: Residual test on tobacco budworm larvae (HV), Cotton leaf, mortality; settings: 48 h, read-out: HV grading of mortality
Protocol: as §1, §2, §3
(tobacco budworm - larvae)

With CC(C)(C)c1ncc(C(C(=O)OCc2cccc(Oc3ccccc3)c2)C(C)(C)C)cn1 (racemic) [Compound 1, 3-phenoxybenzyl (RS)-2-[2-(1,1,-dimethylethyl)pyrimidin-5-yl]-3,3-dimethylbutanoate] the mortality at 500 ppm [1] was under 50%, the mortality at 500 ppm (Myzus persicae (aphids)) was 80 to 100% and the mortality at 500 ppm [2] was 80 to 100%. The pest or weed control at 500 ppm [3] was 80 to 100%, the mortality at 500 ppm [4] was under 50% and the mortality at 500 ppm [5] was 80 to 100%. It also gave a mortality at 500 ppm [6] of under 50%, a mortality at 500 ppm [7] of 80 to 100% and a mortality at 500 ppm [8] of under 50%. For the same compound, the mortality at 500 ppm [9] was 80 to 100%.
For CC(C)(C)c1ncc(C(C(=O)OC(C#N)c2cccc(Oc3ccccc3)c2)C(C)(C)C)cn1 (racemic) [Compound 2, (RS)-1-cyano-1-(3-phenoxphenyl)methyl (RS)-2-[2-(1,1-dimethylethyl)pyrimidin-5-yl]-3,3-dimethylbutanoate], the mortality at 500 ppm [1] was 80 to 100%, the mortality at 500 ppm (Myzus persicae (aphids)) was 80 to 100% and the mortality at 500 ppm [2] was 80 to 100%. It also gave a pest or weed control at 500 ppm [3] of under 50%, a mortality at 500 ppm [4] of under 50% and a mortality at 500 ppm [5] of under 50%. For the same compound, the mortality at 500 ppm [6] was 80 to 100%, the mortality at 500 ppm [7] was 80 to 100% and the mortality at 500 ppm [8] was 80 to 100%. The mortality at 500 ppm [9] was 80 to 100%.
With Cc1c(COC(=O)C(c2cnc(C(C)(C)C)nc2)C(C)(C)C)cccc1-c1ccccc1 (racemic) [Compound 3, 2-methyl-3-phenylbenzyl (RS)-2-[2-(1,1-dimethylethyl)pyrimidin-5-yl]-3,3-dimethylbutanoate] the mortality at 500 ppm [1] was 80 to 100%, the mortality at 500 ppm (Myzus persicae (aphids)) was under 50% and the mortality at 500 ppm [2] was 80 to 100%. The pest or weed control at 500 ppm [3] was under 50%, the mortality at 500 ppm [4] was under 50% and the mortality at 500 ppm [5] was 80 to 100%. It also gave a mortality at 500 ppm [6] of under 50%, a mortality at 500 ppm [7] of 80 to 100% and a mortality at 500 ppm [8] of under 50%. It also gave a mortality at 500 ppm [9] of 50 to 79%.
C=CCc1c(F)c(F)c(COC(=O)C(c2cnc(C(C)(C)C)nc2)C(C)(C)C)c(F)c1F (racemic) [Compound 5, 4-(prop-2-en-1-yl)-2,3,5,6-tetrafluorobenzyl (RS)-2-[2-(1,1-dimethylethyl)pyrimidin-5-yl]-3,3-dimethylbutanoate] was tested, and the mortality at 500 ppm [1] was 80 to 100%, the mortality at 500 ppm (Myzus persicae (aphids)) was 80 to 100% and the mortality at 500 ppm [2] was 80 to 100%. For the same compound, the pest or weed control at 500 ppm [3] was 50 to 79%, the mortality at 500 ppm [4] was under 50% and the mortality at 500 ppm [5] was under 50%. It also gave a mortality at 500 ppm [6] of under 50%, a mortality at 500 ppm [7] of 50 to 79% and a mortality at 500 ppm [8] of under 50%. It also gave a mortality at 500 ppm [9] of 50 to 79%.
With CC(C)(C)c1ncc(C(C(=O)OCN2C(=O)C3=C(CCCC3)C2=O)C(C)(C)C)cn1 (racemic) [Compound 6, N-3,4,5,6-tetrahydrophthalimidomethyl (RS)-2-[2-(1,1-dimethylethyl)pyrimidin-5-yl]-3,3-dimethylbutanoate] the mortality at 500 ppm [1] was under 50%, the mortality at 500 ppm (Myzus persicae (aphids)) was under 50% and the mortality at 500 ppm [2] was 80 to 100%. It also gave a pest or weed control at 500 ppm [3] of under 50%, a mortality at 500 ppm [4] of under 50% and a mortality at 500 ppm [6] of under 50%. The mortality at 500 ppm [7] was under 50%, the mortality at 500 ppm [8] was 50 to 79% and the mortality at 500 ppm [9] was under 50%.
In the case of CC(C)(C)c1ncc(C(C(=O)OCc2cccc(Oc3ccccc3)n2)C(C)(C)C)cn1 (racemic) [Compound 9, (6-phenoxypyrid-2-yl)methyl (RS)-2-[2-(1,1-dimethylethyl)pyrimidin-5-yl]-3,3-dimethylbutanoate], the mortality at 500 ppm [1] is reported as 80 to 100%, the mortality at 500 ppm (Myzus persicae (aphids)) is reported as 80 to 100% and the mortality at 500 ppm [2] is reported as 80 to 100%. It also gave a pest or weed control at 500 ppm [3] of 80 to 100%, a mortality at 500 ppm [4] of 50 to 79% and a mortality at 500 ppm [5] of 80 to 100%. For the same compound, the mortality at 500 ppm [6] was 80 to 100%, the mortality at 500 ppm [7] was 80 to 100% and the mortality at 500 ppm [8] was 50 to 79%. The mortality at 500 ppm [9] was 80 to 100%.
For C[C@@H](OC(=O)[C@@H](c1cnc(C(C)(C)C)nc1)C(C)(C)C)c1cccc(Oc2ccccc2)n1 (racemic) [Compound 11, (RS)-1-(6-phenoxypyrid-2-yl)ethyl (RS)-2-[2-(1,1-dimethylethyl)pyrimidin-5-yl]-3,3-dimethylbutanoate], the mortality at 500 ppm [1] was 80 to 100%, the mortality at 500 ppm (Myzus persicae (aphids)) was 80 to 100% and the mortality at 500 ppm [2] was 80 to 100%. For the same compound, the pest or weed control at 500 ppm [3] was 80 to 100%, the mortality at 500 ppm [4] was under 50% and the mortality at 500 ppm [5] was 80 to 100%. For the same compound, the mortality at 500 ppm [6] was 80 to 100%, the mortality at 500 ppm [7] was 80 to 100% and the mortality at 500 ppm [8] was 80 to 100%. It also gave a mortality at 500 ppm [9] of 80 to 100%.
With CC(C)(C)c1ncc(C(C(=O)OCc2c(F)c(F)c(CC=CCl)c(F)c2F)C(C)(C)C)cn1 (racemic) [Compound 14, 4-(EZ-3-chloroprop-2-en-1-yl)-2,3,5,6-tetrafluorobenzyl (RS)-2-[(1,1-dimethylethyl)pyrimidin-5-yl)-3,3-dimethylbutanoate] the mortality at 500 ppm [1] was under 50%, the mortality at 500 ppm (Myzus persicae (aphids)) was 80 to 100% and the mortality at 500 ppm [2] was 80 to 100%. For the same compound, the pest or weed control at 500 ppm [3] was 50 to 79%, the mortality at 500 ppm [4] was under 50% and the mortality at 500 ppm [5] was under 50%. The mortality at 500 ppm [6] was 80 to 100%, the mortality at 500 ppm [7] was 80 to 100% and the mortality at 500 ppm [8] was under 50%. For the same compound, the mortality at 500 ppm [9] was 80 to 100%.
Work on CC(C)(C)c1ncc(C(C(=O)OCc2ccc(F)c(Cc3ccccc3)c2)C(C)(C)C)cn1 (racemic) [Compound 18, 3-benzyl-4-fluorobenzyl (RS)-2-[2-(1,1-dimethylethyl)pyrimidin-5-yl]-3,3-dimethylbutanoate] yielded a mortality at 500 ppm [1] of 80 to 100%, a mortality at 500 ppm (Myzus persicae (aphids)) of 80 to 100% and a mortality at 500 ppm [2] of 80 to 100%. For the same compound, the pest or weed control at 500 ppm [3] was 80 to 100%, the mortality at 500 ppm [4] was under 50% and the mortality at 500 ppm [5] was under 50%. It also gave a mortality at 500 ppm [6] of under 50%, a mortality at 500 ppm [7] of 80 to 100% and a mortality at 500 ppm [8] of 80 to 100%. For the same compound, the mortality at 500 ppm [9] was 80 to 100%.
CC(C)(C)c1ncc(C(C(=O)OCc2ccc(F)c(Oc3ccccc3)c2)C(C)(C)C)cn1 (racemic) [Compound 25, 4-fluoro-3-phenoxybenzyl (RS)-2-[2-(1,1-dimethylethyl)pyrimidin-5-yl]-3,3-dimethylbutanoate] showed a mortality at 500 ppm [1] of 80 to 100%, a mortality at 500 ppm (Myzus persicae (aphids)) of 80 to 100% and a mortality at 500 ppm [2] of 80 to 100%. The pest or weed control at 500 ppm [3] was 80 to 100%, the mortality at 500 ppm [4] was under 50% and the mortality at 500 ppm [5] was 80 to 100%. It also gave a mortality at 500 ppm [6] of under 50%, a mortality at 500 ppm [7] of 80 to 100% and a mortality at 500 ppm [8] of 50 to 79%. The mortality at 500 ppm [9] was 80 to 100%.
Work on CC(C)(C)c1ncc(C(C(=O)OCc2c(F)cccc2Cl)C(C)(C)C)cn1 (racemic) [Compound 26, 2-chloro-6-fluorobenzyl (RS)-2-[2-(1,1-dimethylethyl)pyrimidin-5-yl]-3,3-dimethylbutanoate] yielded a mortality at 500 ppm [1] of 80 to 100%, a mortality at 500 ppm (Myzus persicae (aphids)) of 50 to 79% and a mortality at 500 ppm [2] of 80 to 100%. It also gave a pest or weed control at 500 ppm [3] of 80 to 100%, a mortality at 500 ppm [4] of under 50% and a mortality at 500 ppm [5] of 80 to 100%. The mortality at 500 ppm [6] was 80 to 100%, the mortality at 500 ppm [7] was 80 to 100% and the mortality at 500 ppm [8] was 80 to 100%. For the same compound, the mortality at 500 ppm [9] was under 50%.
In the case of CC(C)(C)c1ncc(C(C(=O)OCc2c(F)c(F)c(CCl)c(F)c2F)C(C)(C)C)cn1 (racemic) [Compound 167, 4-chloromethyl-2,3,5,6-tetrafluorobenzyl (RS)-2-[2-(1,1-dimethylethyl)pyrimidin-5-yl]-3,3-dimethylbutanoate], the mortality at 500 ppm [1] is reported as 80 to 100%, the mortality at 500 ppm (Myzus persicae (aphids)) is reported as 80 to 100% and the mortality at 500 ppm [2] is reported as 80 to 100%. The pest or weed control at 500 ppm [3] was under 50%, the mortality at 500 ppm [4] was under 50% and the mortality at 500 ppm [5] was 80 to 100%. It also gave a mortality at 500 ppm [6] of under 50%, a mortality at 500 ppm [8] of 80 to 100% and a mortality at 500 ppm [9] of 80 to 100%.
With CCC(C)(C)C(C(=O)OCc1c(F)c(F)c(COC)c(F)c1F)c1cnc(C(C)(C)C)nc1 (racemic) [Compound 210, 4-methoxymethyl-2,3,5,6-tetrafluorobenzyl (RS)-2-[2-(1,1-dimethylethyl)-pyrimidin-5-yl]-3,3-dimethylpentanoate] the mortality at 100 ppm ([1]; 100 ppm) was under 50%, the mortality at 100 ppm (Myzus persicae (aphids); 100 ppm) was under 50% and the mortality at 100 ppm ([2]; 100 ppm) was 80 to 100%. It also gave a mortality at 100 ppm ([4]; 100 ppm) of under 50%, a mortality at 100 ppm ([5]; 100 ppm) of 80 to 100% and a mortality at 100 ppm ([8]; 100 ppm) of under 50%. The mortality at 100 ppm [9] was under 50%.

Reference: US4962109A, “Insecticidally and acaricidally active pyrimidine esters and intermediates therefor” (Imperial Chemical Industries PLC, priority 1985, dated 1990)
